pIC50: −log10 of the molar value.

The target in one assay is T1, recombinant human baculovirus-expressed GST-tagged FASN (Homo sapiens, UniProt P49327).
T1 construct: GST
T1 sequence (P49327 whole entry): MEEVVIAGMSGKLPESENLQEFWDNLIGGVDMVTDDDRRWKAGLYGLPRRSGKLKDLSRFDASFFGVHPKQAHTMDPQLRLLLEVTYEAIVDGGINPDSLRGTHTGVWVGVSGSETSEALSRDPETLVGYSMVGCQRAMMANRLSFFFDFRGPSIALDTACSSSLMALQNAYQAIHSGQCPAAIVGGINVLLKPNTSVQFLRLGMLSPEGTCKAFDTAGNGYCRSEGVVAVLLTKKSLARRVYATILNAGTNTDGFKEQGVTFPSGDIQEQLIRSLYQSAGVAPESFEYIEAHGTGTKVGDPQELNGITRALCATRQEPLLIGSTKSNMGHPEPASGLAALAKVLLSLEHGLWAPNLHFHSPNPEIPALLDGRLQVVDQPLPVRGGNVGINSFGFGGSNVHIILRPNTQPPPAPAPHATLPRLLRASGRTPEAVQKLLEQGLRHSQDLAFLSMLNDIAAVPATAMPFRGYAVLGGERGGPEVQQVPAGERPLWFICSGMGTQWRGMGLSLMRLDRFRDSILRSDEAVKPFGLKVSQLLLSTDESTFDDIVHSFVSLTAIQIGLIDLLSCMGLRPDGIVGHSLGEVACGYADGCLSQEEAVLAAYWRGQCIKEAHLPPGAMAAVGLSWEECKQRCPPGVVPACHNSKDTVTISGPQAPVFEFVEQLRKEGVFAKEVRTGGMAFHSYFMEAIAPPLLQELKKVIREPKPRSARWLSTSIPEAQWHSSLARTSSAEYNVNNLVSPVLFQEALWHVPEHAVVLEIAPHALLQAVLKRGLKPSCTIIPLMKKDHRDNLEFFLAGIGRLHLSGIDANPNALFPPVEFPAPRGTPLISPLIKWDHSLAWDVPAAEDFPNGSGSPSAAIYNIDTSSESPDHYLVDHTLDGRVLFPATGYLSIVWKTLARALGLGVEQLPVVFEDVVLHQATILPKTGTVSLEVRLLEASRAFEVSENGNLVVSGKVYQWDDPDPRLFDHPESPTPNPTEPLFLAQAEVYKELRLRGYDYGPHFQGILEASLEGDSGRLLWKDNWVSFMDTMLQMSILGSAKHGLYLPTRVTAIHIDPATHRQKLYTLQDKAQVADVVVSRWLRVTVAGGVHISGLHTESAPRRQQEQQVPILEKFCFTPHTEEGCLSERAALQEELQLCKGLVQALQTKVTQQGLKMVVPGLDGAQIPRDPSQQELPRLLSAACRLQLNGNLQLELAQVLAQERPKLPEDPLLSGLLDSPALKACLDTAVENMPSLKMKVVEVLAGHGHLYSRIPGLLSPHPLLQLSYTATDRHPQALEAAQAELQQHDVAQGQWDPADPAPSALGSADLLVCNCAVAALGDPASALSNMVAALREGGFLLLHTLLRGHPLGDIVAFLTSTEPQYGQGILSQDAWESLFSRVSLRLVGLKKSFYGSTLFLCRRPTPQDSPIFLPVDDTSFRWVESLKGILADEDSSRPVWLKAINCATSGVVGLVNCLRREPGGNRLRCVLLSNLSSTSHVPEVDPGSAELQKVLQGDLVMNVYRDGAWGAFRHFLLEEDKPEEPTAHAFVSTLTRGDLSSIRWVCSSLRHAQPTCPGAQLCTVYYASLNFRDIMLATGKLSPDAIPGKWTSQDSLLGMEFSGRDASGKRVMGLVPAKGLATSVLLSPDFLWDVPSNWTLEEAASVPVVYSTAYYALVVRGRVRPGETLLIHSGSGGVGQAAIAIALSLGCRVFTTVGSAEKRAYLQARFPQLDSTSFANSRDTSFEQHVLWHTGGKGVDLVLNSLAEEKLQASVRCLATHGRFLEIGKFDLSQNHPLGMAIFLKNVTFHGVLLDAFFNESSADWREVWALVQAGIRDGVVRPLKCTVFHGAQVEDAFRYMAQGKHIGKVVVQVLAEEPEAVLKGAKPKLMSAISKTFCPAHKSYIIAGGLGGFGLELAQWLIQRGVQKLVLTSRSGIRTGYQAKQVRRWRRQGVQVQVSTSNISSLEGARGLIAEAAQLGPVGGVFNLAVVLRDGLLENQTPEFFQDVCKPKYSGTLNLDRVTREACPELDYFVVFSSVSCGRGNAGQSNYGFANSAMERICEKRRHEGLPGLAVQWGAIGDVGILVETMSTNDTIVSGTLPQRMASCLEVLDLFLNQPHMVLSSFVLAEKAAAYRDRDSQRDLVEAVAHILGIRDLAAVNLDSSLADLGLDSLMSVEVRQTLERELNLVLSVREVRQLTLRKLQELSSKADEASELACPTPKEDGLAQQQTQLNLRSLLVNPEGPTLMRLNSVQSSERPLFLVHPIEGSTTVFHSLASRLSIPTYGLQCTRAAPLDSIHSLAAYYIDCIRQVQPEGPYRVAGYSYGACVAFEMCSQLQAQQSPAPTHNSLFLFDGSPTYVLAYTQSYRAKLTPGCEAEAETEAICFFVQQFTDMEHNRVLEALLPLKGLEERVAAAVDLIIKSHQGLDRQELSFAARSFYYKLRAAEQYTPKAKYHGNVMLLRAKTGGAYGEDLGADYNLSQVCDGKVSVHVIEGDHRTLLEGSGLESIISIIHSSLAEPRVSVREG
Nature of the assay: biochemical.
Conditions: not given
For `Cc1c(-c2ccc3c(c2)CCOC2(CCN(C(N)=O)CC2)O3)ccc2cccnc12` [Example 77, 7-(8-methyl-7-quinolyl)spiro[4,5-dihydro-1,3-benzodioxepine-2,4′-piperidine]-1′-carboxamide], the pIC50 was 6.00 to 7.00. Still for that read-out and setting: for `CCNC(=O)N1CCC2(CC1)OCCc1cc(-c3ccc4cccnc4c3C)ccc1O2` [Example 78, N-Ethyl-7-(8-methyl-7-quinolyl)spiro[4,5-dihydro-1,3-benzodioxepine-2,4′-piperidine]-1′-carboxamide] the value was 6.00 to 7.00; for `CCONC(=O)N1CCC2(CC1)OCCc1cc(-c3ccc4cccnc4c3C)ccc1O2` [Example 79, N-Ethoxy-7-(8-methyl-7-quinolyl)spiro[4,5-dihydro-1,3-benzodioxepine-2,4′-piperidine]-1′-carboxamide], 7.00 to 9.00; for `CONC(=O)N1CCC2(CC1)OCCc1cc(-c3ccc4cccnc4c3C)ccc1O2` [Example 80, N-Methoxy-7-(8-methyl-7-quinolyl)spiro[4,5-dihydro-1,3-benzodioxepine-2,4′-piperidine]-1′-carboxamide], 7.00 to 9.00. Same read-out and setting: as for `Cn1cnc2cc(-c3ccc4c(c3)COC3(CCN(C(N)=O)CC3)O4)ccc21` [Example 82, 6-(1-Methylbenzimidazol-5-yl)spiro[4H-1,3-benzodioxine-2,4′-piperidine]-1′-carboxamide], the figure is 6.00 to 7.00. Still for that read-out and setting: as for `CC(C)(C)OC(=O)N1CCC2(CC1)OCc1cc(-c3cnc4sccc4c3)ccc1O2` [Example 84, tert-Butyl 6-thieno[2,3-b]pyridin-5-ylspiro[4H-1,3-benzodioxine-2,4′-piperidine]-1′-carboxylate], the figure is 5.00 to 6.00. As for `NC(=O)N1CCC2(CC1)OCc1cc(-c3cnc4sccc4c3)ccc1O2` [Example 89, 6-thieno[2,3-b]pyridin-5-ylspiro[4H-1,3-benzodioxine-2,4′-piperidine]-1′-carboxamide], the pIC50 was 5.00 to 6.00.

The assay is the same for the next values; noted with them: 5 nM FASN, 150 μM NADPH, 10 μM acetyl-CoA, 25 μM malonyl-CoA, 90 minutes incubation; read-out: IC50 data for Compounds of Formula I, Activity.
Turning to `CCNC(=O)N1CCC2(CCc3cc(-c4ccc5cccnc5c4Cl)ccc3O2)CC1` [Example 66, 6-(8-chloro-7-quinolyl)-N-ethyl-spiro[chromane-2,4′-piperidine]-1′-carboxamide], the pIC50 is 7.00 to 9.00. On the same count and under the same terms, for `O=C(CO)N1CCC2(CCc3cc(-c4ccc5cccnc5c4Cl)ccc3O2)CC1` [Example 67, 1-[6-(8-chloro-7-quinolyl)spiro[chromane-2,4′-piperidine]-1′-yl]-2-hydroxy-ethanone] the value was 5.00 to 6.00; for `O=C(NO)N1CCC2(CCc3cc(-c4ccc5cccnc5c4Cl)ccc3O2)CC1` [Example 68, 6-(8-Chloro-7-quinolyl)spiro[chromane-2,4′-piperidine]-1′-carbohydroxamic acid], 6.00 to 7.00; for `CCONC(=O)N1CCC2(CCc3cc(-c4ccc5cccnc5c4Cl)ccc3O2)CC1` [Example 69, 6-(8-chloro-7-quinolyl)-N-ethoxy-spiro[chromane-2,4′-piperidine]-1′-carboxamide], 7.00 to 9.00. On the same count and under the same terms, as for `CONC(=O)N1CCC2(CCc3cc(-c4ccc5cccnc5c4Cl)ccc3O2)CC1` [Example 70, 6-(8-chloro-7-quinolyl)-N-methoxy-spiro[chromane-2,4′-piperidine]-1′-carboxamide], the figure is 7.00 to 9.00; as for `CCOC(=O)N1CCC2(CCc3cc(-c4ccc5cccnc5c4Cl)ccc3O2)CC1` [Example 71, Ethyl 6-(8-chloro-7-quinolyl)spiro[chromane-2,4′-piperidine]-1′-carboxylate], 5.00 to 6.00; as for `NC(=O)N1CCC2(CCc3cc(-c4cnc5ccccc5c4)ccc3O2)CC1` [Example 72, 6-(3-Quinolyl)spiro[chromane-2,4′-piperidine]-1′-carboxamide], 6.00 to 7.00. Still for that read-out and setting: as for `NC(=O)N1CCC2(CCc3cc(-c4ccc5occc5c4)ccc3O2)CC1` [Example 73, 6-(Benzofuran-5-yl)spiro[chromane-2,4′-piperidine]-1′-carboxamide], the figure is 5.00 to 6.00; as for `NC(=O)N1CCC2(CCc3cc(-c4ccc5ncsc5c4)ccc3O2)CC1` [Example 74, 6-(1,3-benzothiazol-6-yl)spiro[chromane-2,4′-piperidine]-1′-carboxamide], 5.00 to 6.00. As to `Cn1ccc2cc(-c3ccc4c(c3)CCC3(CCN(C(N)=O)CC3)O4)ccc21` [Example 75, 6-(1-Methylindol-5-yl)spiro[chromane-2,4′-piperidine]-1′-carboxamide], the pIC50 is 6.00 to 7.00. Still for that read-out and setting: for `NC(=O)N1CCC2(CCc3cc(-c4ccc5[nH]ccc5c4)ccc3O2)CC1` [Example 76, 6-(1H-Indol-5-yl)spiro[chromane-2,4′-piperidine]-1′-carboxamide] the value was 6.00 to 7.00.

With `Cn1cnc2cc(-c3ccc4c(c3)CCC3(CCN(C(N)=O)CC3)O4)ccc21` [Example 81, 6-(1-Methylbenzimidazol-5-yl)spiro[chromane-2,4′-piperidine]-1′-carboxamide], the pIC50 is 6.00 to 7.00. For `NC(=O)N1CCC2(CCc3cc(-c4ccc5scnc5c4)ccc3O2)CC1` [Example 83, 6-(1,3-Benzothiazol-5-yl)spiro[chromane-2,4′-piperidine]-1′-carboxamide], the pIC50 is 6.00 to 7.00. On the same count and under the same terms, for `NC(=O)N1CCC2(CCc3cc(-c4cnc5sccc5c4)ccc3O2)CC1` [Example 85, 6-Thieno[2,3-b]pyridin-5-ylspiro[chromane-2,4′-piperidine]-1′-carboxamide] the value was 5.00 to 6.00. Same read-out and setting: for `NC(=O)N1CCC2(CCc3cc(-c4ccc5ocnc5c4)ccc3O2)CC1` [Example 86, 6-(1,3-Benzoxazol-5-yl)spiro[chromane-2,4′-piperidine]-1′-carboxamide] the value was 5.00 to 6.00. Same read-out and setting: as for `CCNC(=O)N1CCC2(CCc3cc(-c4ccc5cccnc5c4C)ccc3O2)CC1` [Example 97, N-Ethyl-6-(8-methyl-7-quinolyl)spiro[chromane-2,4′-piperidine]-1′-carboxamide], the figure is 7.00 to 9.00; as for `Cc1c(-c2ccc3c(c2)CCC2(CCN(C(=O)NC(C)C)CC2)O3)ccc2cccnc12` [Example 98, N-Isopropyl-6-(8-methyl-7-quinolyl)spiro[chromane-2,4′-piperidine]-1′-carboxamide], 6.00 to 7.00. On to `CCCNC(=O)N1CCC2(CCc3cc(-c4ccc5cccnc5c4C)ccc3O2)CC1` [Example 99, 6-(8-Methyl-7-quinolyl)-N-propyl-spiro[chromane-2,4′-piperidine]-1′-carboxamide], for which the pIC50 was 7.00 to 9.00. On the same count and under the same terms, for `Cc1c(-c2ccc3c(c2)CCC2(CCN(C(=O)NCC4CC4)CC2)O3)ccc2cccnc12` [Example 100, N-(Cyclopropylmethyl)-6-(8-methyl-7-quinolyl)spiro[chromane-2,4′-piperidine]-1′-carboxamide] the value was 7.00 to 9.00. `CCONC(=O)N1CCC2(CCc3cc(-c4ccc5cccnc5c4C)ccc3O2)CC1` [Example 101, N-Ethoxy-6-(8-methyl-7-quinolyl)spiro[chromane-2,4′-piperidine]-1′-carboxamide]: the pIC50 was 7.00 to 9.00.

As to `CCCONC(=O)N1CCC2(CCc3cc(-c4ccc5cccnc5c4C)ccc3O2)CC1` [Example 102, 6-(8-Methyl-7-quinolyl)-N-propoxy-spiro[chromane-2,4′-piperidine]-1′-carboxamide], the pIC50 is 7.00 to 9.00. For the compound `Cc1c(-c2ccc3c(c2)CCC2(CCN(C(=O)NOC(C)C)CC2)O3)ccc2cccnc12` [Example 103, N-Isopropoxy-6-(8-methyl-7-quinolyl)spiro[chromane-2,4′-piperidine]-1′-carboxamide], the negative logarithm of the IC50 (pIC50) was 7.00 to 9.00. Same read-out and setting: for `Cc1c(-c2ccc3c(c2)CCC2(CCN(C(=O)NOCC(C)C)CC2)O3)ccc2cccnc12` [Example 104, N-Isobutoxy-6-(8-methyl-7-quinolyl)spiro[chromane-2,4′-piperidine]-1′-carboxamide] the value was 6.00 to 7.00; for `Cc1c(-c2ccc3c(c2)CCC2(CCN(C(=O)NO)CC2)O3)ccc2cccnc12` [Example 105, 6-(8-methyl-7-quinolyl)spiro[chromane-2,4′-piperidine]-1′-carbohydroxamic acid], 6.00 to 7.00; for `Cc1c(-c2ccc3c(c2)CCC2(CCN(C(N)=O)CC2)O3)ccc2cccnc12` [Example 106, 6-(8-Methyl-7-quinolyl)spiro[chromane-2,4′-piperidine]-1′-carboxamide], 7.00 to 9.00. Consider `CCONC(=O)N1CCC2(CCc3cc(-c4ccc5nccn5c4C)ccc3O2)CC1` [Example 107, N-Ethoxy-6-(5-methylimidazo[1,2-a]pyridin-6-yl)spiro[chromane-2,4′-piperidine]-1′-carboxamide], for which the pIC50 is 7.00 to 9.00. On the same count and under the same terms, for `Cc1c(-c2ccc3c(c2)CCC2(CCN(C(=O)NOC(C)C)CC2)O3)ccc2nccn12` [Example 108, N-Isopropoxy-6-(5-methylimidazo[1,2-a]pyridin-6-yl)spiro[chromane-2,4′-piperidine]-1′-carboxamide] the value was 7.00 to 9.00.

On to `Cc1c(-c2ccc3c(c2)CCC2(CCN(C(N)=O)CC2)O3)ccc2nccn12` [Example 109, 6-(5-Methylimidazo[1,2-a]pyridin-6-yl)spiro[chromane-2,4′-piperidine]-1′-carboxamide], for which the pIC50 was 6.00 to 7.00. The same measure, in the same setting: as for `CCNC(=O)N1CCC2(CCc3cc(-c4ccc5nccn5c4C)ccc3O2)CC1` [Example 110, N-Ethyl-6-(5-methylimidazo[1,2-a]pyridin-6-yl)spiro[chromane-2,4′-piperidine]-1′-carboxamide], the figure is 7.00 to 9.00. Regarding `Cc1c(-c2ccc3c(c2)CCC2(CCN(C(=O)NC(C)C)CC2)O3)ccc2nccn12` [Example 111, N-Isopropyl-6-(5-methylimidazo[1,2-a]pyridin-6-yl)spiro[chromane-2,4′-piperidine]-1′-carboxamide], the negative logarithm of the IC50 (pIC50) is 6.00 to 7.00. Turning to `CCNC(=O)N1CCC2(CCc3cc(-c4ccc5ccnn5c4C)ccc3O2)CC1` [Example 112, N-Ethyl-6-(7-methylpyrazolo[1,5-a]pyridin-6-yl)spiro[chromane-2,4′-piperidine]-1′-carboxamide], the pIC50 is 7.00 to 9.00. On the same count and under the same terms, as for `Cc1c(-c2ccc3c(c2)CCC2(CCN(C(=O)NC(C)C)CC2)O3)ccc2ccnn12` [Example 113, N-Isopropyl-6-(7-methylpyrazolo[1,5-a]pyridin-6-yl)spiro[chromane-2,4′-piperidine]-1′-carboxamide], the figure is 6.00 to 7.00.

A word on the pIC50: it is −log10 of the IC50, conventionally taken in molar units.

Source of the values: patent publication US12448392B2, “Spiropiperidine derivatives” (89BIO LTD, priority 2016, dated 2025).
